{
  "source": "patent EP2717057A1",
  "about": "“Morphine-6-glucuronide derivatives, immunogens and immunoassay” (Cisbio Bioassays, priority 2012, dated 2014)",
  "biological_target": "rabbit anti-M6G polyclonal antibody",
  "assay": "Cross-reactivity of the competitive M6G-ELISA (M6G-HRP tracer, biotinylated antibody)",
  "format": "binding",
  "settings": "for Kd: approximate, calculated from Figure 1, competing compound diluted in NBCS at 1, 10, 100 or 1000 nM, one site competition model, read-out: affinity constant K; for K relative to M6G (X as high as M6G): ratio of the compound's K to the K of M6G",
  "procedure": "The rabbit anti-M6G polyclonal antibody was biotinylated for the ELISA assay. After dialysis in buffer carbonate 100 mM pH 9, biotin-NHS dissolved in DMF was added to the antibody. After stirring for 30 min, the free biotin was removed by dialysis in PBS 11 mM pH 7.2. Aliquots of labeled antibody were frozen and stored at -20°C. Then, the biotinylated antibody was diluted at ELISA working concentration determined at 0.25µg.mL^-1 in PBS 11 mM pH 7.2 + 1% BSA, aliquoted and stored at -20°C.\n96-well microplates were coated with 200 µL/well of a 10 µg.mL^-1 BSA-biotin solution in PBS and incubated for 24 h at room temperature. Then after aspiration 200 µL/well of 10 µg.mL^-1 of avidin solution in PBS were distributed and incubated for 24 h at room temperature. After washing with NaCl, Tween® 0.005%, 200 µL/well of saturation solution was added (PBS + 2% Sorbitol + 0.5% Glycine + 0.1% BSA + 0.065% NaN3) and incubated for 24 h at 4°C. After an aspiration, the microplates were dried at 20°C in a ventilated room for 12 h, packed with a dessicant and stored at 4°C.\nA competitive assay format was used for the M6G-ELISA. 100 µL of biotinylated antibody were added and incubated for 2 h at room temperature under 400 rpm stirring. After incubation, the wells were emptied and 3 wash cycles with H2O + 0.05% Tween® were applied. 50 µL of calibrators, controls and samples were added in duplicate. If necessary, samples were prediluted in dilution buffer (PBS + 0.1% BSA), then 50 µL of M6G-HRP conjugate was distributed in all the wells and incubated for 2h at room temperature, under 400rpm stirring. After a final washing step, 100 µL of HRP substrate (TMB) were added, and incubated for 10 min at room temperature, under 400rpm stirring. The chromogenic reaction was stopped with 100 µL H2SO4 1 N, and the absorbance of each sample was determined at 450 nm and 620 nm (reference wavelength). The results were analyzed using GraphPad Prism Software, model one site competition.\nThe cross-reactivity of the assay described in example 5 with several compounds that are structurally close to M6G was evaluated. For this purpose, the assay was performed with 50 µL of samples constituted of competing compounds diluted in NBCS at the concentrations of: 1 nM, 10 nM, 100 nM or 1000 nM.",
  "data": [
    {"molecule": "CN1CC[C@]23c4c5ccc(O)c4O[C@H]2[C@@H](O[C@@H]2O[C@H](C(=O)O)[C@@H](O)[C@H](O)[C@H]2O)C=C[C@H]3[C@H]1C5", "note": "[M6G, Morphine-6-glucuronide]", "values": [
      {"measurement": "Kd", "value": 5.9, "unit": "nM"}
    ]},
    {"molecule": "COc1ccc2c3c1O[C@H]1[C@@H](O)C=C[C@H]4[C@@H](C2)N(C)CC[C@@]341", "note": "[codeine, Codeine]", "values": [
      {"measurement": "Kd", "value": 220, "unit": "nM"},
      {"measurement": "K relative to M6G (X as high as M6G)", "value": 35, "unit": "X"}
    ]},
    {"molecule": "CN1CC[C@]23c4c5ccc(O[C@@H]6O[C@H](C(=O)O)[C@@H](O)[C@H](O)[C@H]6O)c4O[C@H]2[C@@H](O)C=C[C@H]3[C@H]1C5", "note": "[M3G, Morphine-3-glucuronide]", "values": [
      {"measurement": "Kd", "value": 670, "unit": "nM"},
      {"measurement": "K relative to M6G (X as high as M6G)", "value": "more than 100 X"}
    ]},
    {"molecule": "Oc1ccc2c3c1O[C@H]1[C@@H](O)C=C[C@H]4[C@@H](C2)NCC[C@@]341", "note": "[normorphine, Normorphine]", "values": [
      {"measurement": "Kd", "value": "> 1000", "unit": "nM"}
    ]},
    {"molecule": "CN1CC[C@]23c4c5ccc(O[C@@H]6O[C@H](C(=O)O)[C@@H](O)[C@H](O)[C@H]6O)c4O[C@H]2[C@@H](O[C@@H]2O[C@H](C(=O)O)[C@@H](O)[C@H](O)[C@H]2O)C=C[C@H]3[C@H]1C5", "note": "[M3,6G, Morphine-3-6-diglucuronide]", "values": [
      {"measurement": "Kd", "value": 3.4, "unit": "nM"}
    ]},
    {"molecule": "COc1ccc2c3c1O[C@H]1[C@@H](O)C=C[C@H]4[C@@H](C2)NCC[C@@]341", "note": "[norcodeine, Norcodeine]", "values": [
      {"measurement": "Kd", "value": "> 1000", "unit": "nM"}
    ]}
  ]
}
